Source: patent publication US10555987B2, “GHRH agonists for the treatment of ischemic disorders” (UNIVERSITY OF MIAMI, priority 2012, dated 2020)
Non-standard residues stand in square brackets, D forms with d. Residues, ends and D or L forms follow the SMILES beside them. *: point of attachment. Desaminotyrosyl = O=C(CCc1ccc(O)cc1)*; NMeY = CN[C@@H](Cc1ccc(O)cc1)C(=O)O; Agmatine = N=C(N)NCCCCN*; Nle = CCCC[C@H](N)C(=O)O; Orn = NCCC[C@H](N)C(=O)O; Abu = CC[C@H](N)C(=O)O; Ava = NCCCCC(=O)O

Columns and labels:
GHRH receptor [1] = target: T1, GHRH receptor (Homo sapiens, UniProt Q02643); assay: GHRH receptor binding, competition with 125I-labeled JV-1-42, human pituitary membrane homogenates (Table 7); set-up: Normal human pituitaries were purchased from the National Hormone and Peptide Program; tissue National Hormone and Peptide Program (A.F. Parlow, Harbor-UCLA Medical Center, Torrance, Calif.); host or cells: normal human pituitary, membrane fraction; conditions: for Relative affinity (Binding potency) vs JI-38: JI-38 = 1, Table 7
T1 sequence (Q02643 23-423): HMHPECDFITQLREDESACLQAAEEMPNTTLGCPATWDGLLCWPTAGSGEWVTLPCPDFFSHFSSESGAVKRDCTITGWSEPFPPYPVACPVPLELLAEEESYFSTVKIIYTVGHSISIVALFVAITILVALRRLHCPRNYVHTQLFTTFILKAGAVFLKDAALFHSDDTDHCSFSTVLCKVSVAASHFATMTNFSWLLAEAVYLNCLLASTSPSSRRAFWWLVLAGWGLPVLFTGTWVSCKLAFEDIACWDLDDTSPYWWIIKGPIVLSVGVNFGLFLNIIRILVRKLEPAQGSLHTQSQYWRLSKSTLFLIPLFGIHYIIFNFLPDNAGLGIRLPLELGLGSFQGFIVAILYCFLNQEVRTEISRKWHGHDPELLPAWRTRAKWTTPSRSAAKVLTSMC
Excerpt: Normal human pituitaries were purchased from the National Hormone and Peptide Program (A.F. Parlow, Los Angeles, County Harbor-UCLA Medical Center, Torrance, Calif.).

GHRH receptor [2] = target: T1, GHRH receptor; assay: Receptor binding in vitro, 125I-labeled [His1,Nle27]-hGHRH(1-32)NH2, membrane receptors of human anterior pituitary cells (Table 14); conditions: for Relative affinity (Binding potency) compared to JI-38: JI-38 = 1; for Relative affinity (Binding potency) compared to hGHRH(1-29): hGHRH(1-29)NH2 = 1
GH release [3] = assay: In vivo endocrine activity, GH release after subcutaneous administration (Table 9); conditions: rat, subcutaneous (s.c.) injection
Description: Subcutaneous Administration. Adult male rats were used and anesthetized with pentobarbital (6 mg/100 g, b.w.), by i.p. injection. […] Blood samples were taken from the jugular vein 5, 15 and/or 30 minutes after the injection. The blood samples were centrifuged, plasma was removed and the GH level was measured byELISA. The results are summarized in terms of potency in Table 9.

GH release [4] = assay: GH releasing potency in vivo, subcutaneous administration (Example 14, Table 12); set-up: species or system rat; conditions: s.c.; for Serum GH level at selected time after injection (ng/ml), 0 min / Serum GH level at selected time after injection (ng/ml), 15 min / Serum GH level at selected time after injection (ng/ml), 30 min: male rats, dose 3 μg/kg, mean ± SEM
Description: Male Sprague-Dawley rats, weighing 200-250 g, were purchased from Charles River Laboratory (Wilmington, Mass.) and used for experiments. All animal procedures were approved by the Veterans Affairs Animal Care and Use Committee and were conducted in accordance with additional institutional guidelines as well. Briefly, groups of 5-6 animals were used in each experiment. The rats were anesthetized with 50 mg/kg of sodium pentobarbital (Nembutal, Lundbeck Inc., Deerfield, Ill.). Twenty min after inducing anesthesia, GHRH(1-29)NH2, JI-38, or new analogs were injected into the animals intravenously (i.v.) or subcutaneously (s.c.). The peptides were dissolved in 0.01 M acetic acid to get 1 μg/μl stock solution, and then diluted with 5% mannitol. Control rats received 5% mannitol only. Blood samples were collected from the jugular vein at selected times and were used for serum preparation. Concentrations of GH in rat sera were determined by ELISA. The relative potencies of tested peptides were calculated using GHRH(1-29)NH2 and JI-38 for comparison, whose potency was defined as 1. The equivalent dosage of GHRH(1-29)NH2 to reach the same level of serum growth hormone release after injection of the specific tested peptide was determined from a GHRH(1-29)NH2 standard curve using Origin 6.0 software. […] Serum GH was determined using the rat Growth Hormone ELISA kit (ALPCO Diagnostics, Mill Valley, Calif.) according to the manufacturer's instruction. Absorbance at 405 nm was measured by a Victor 3 Multi-label Counter (Perkin-Elmer, Waltham, Md.).

| Relative affinity (Binding potency) vs JI-38 (GHRH receptor [1]) | Relative affinity (Binding potency) compared to JI-38 (GHRH receptor [2]) | Relative affinity (Binding potency) compared to hGHRH(1-29) (GHRH receptor [2]) | Structure (SMILES) | IC50 (GHRH receptor [1]; 125I-JV-1-42, human pituitary membranes, Table 7) | GHRH receptor binding affinity (in words) (GHRH receptor [2]; compared to JI-38) | GH releasing potency relative to JI-38 (=1) (GH release [3]; 15 min after) | GH releasing potency relative to JI-38 (=1) (GH release [3]; 30 min after) | Serum GH level at selected time after injection (ng/ml), 0 min (GH release [4]) | Serum GH level at selected time after injection (ng/ml), 15 min (GH release [4]) | Serum GH level at selected time after injection (ng/ml), 30 min (GH release [4]) | GH-releasing potency after s.c. administration (in words) (GH release [4]) | Relative potency compared to GHRH(1-29), 15 min (GH release [4]) | Relative potency compared to JI-38, 15 min (GH release [4]) | Relative potency compared to GHRH(1-29), 30 min (GH release [4]) | Relative potency compared to JI-38, 30 min (GH release [4]) |
| --- | --- | --- | --- | --- | --- | --- | --- | --- | --- | --- | --- | --- | --- | --- | --- |
| 2.18 | 1.34 | 3.75 | CCCC[C@H](NC(=O)[C@@H](NC(=O)[C@H](CC(=O)O)NC(=O)[C@H](CCC(N)=O)NC(=O)[C@H](CC(C)C)NC(=O)[C@H](CC(C)C)NC(=O)[C@H](CCCN)NC(=O)[C@H](CCCNC(=N)N)NC(=O)[C@H](C)NC(=O)[C@H](CO)NC(=O)[C@H](CC(C)C)NC(=O)[C@H](CCC(N)=O)NC(=O)[C@H](CC)NC(=O)[C@H](CC(C)C)NC(=O)[C@@H](NC(=O)[C@H](CCCN)NC(=O)[C@H](CCCNC(=N)N)NC(=O)[C@H](Cc1ccc(O)cc1)NC(=O)[C@H](CO)NC(=O)[C@H](CCC(N)=O)NC(=O)[C@@H](NC(=O)[C@H](Cc1ccccc1)NC(=O)[C@@H](NC(=O)[C@H](C)NC(=O)[C@H](CC(=O)O)NC(=O)[C@H](C)NC(=O)CCc1ccc(O)cc1)[C@@H](C)CC)[C@@H](C)O)C(C)C)[C@@H](C)CC)C(=O)N[C@@H](CC(=O)O)C(=O)N[C@@H](CCCNC(=N)N)C(=O)NCCCCC(N)=O [Peptide P-22327, [Dat^1, Gln^8, Orn^12, Abu^15, Orn^21, Nle^27, Asp^28, Apa^30]hGHRH(1-30)NH2] (Desaminotyrosyl-ADAIFTQSYR[Orn]VL[Abu]QLSAR[Orn]LLQDI[Nle]DR[Ava]-NH2) | – | – | 1.15 | 1.30 | 31.5 ± 3.4 ng/mL | 258.7 ± 31.1 ng/mL | 138 ± 27.9 ng/mL | – | 73.5 | 1.16 | 126.5 | 1.16 |
| 1.59 | 1.05 | 2.94 | CCCC[C@H](NC(=O)[C@@H](NC(=O)[C@H](CC(=O)O)NC(=O)[C@H](CCC(N)=O)NC(=O)[C@H](CC(C)C)NC(=O)[C@H](CC(C)C)NC(=O)[C@H](CCCN)NC(=O)[C@H](CCCNC(=N)N)NC(=O)[C@H](C)NC(=O)[C@H](CO)NC(=O)[C@H](CC(C)C)NC(=O)[C@H](CCC(N)=O)NC(=O)[C@H](CC)NC(=O)[C@H](CC(C)C)NC(=O)[C@@H](NC(=O)[C@H](CCCN)NC(=O)[C@H](CCCNC(=N)N)NC(=O)[C@H](Cc1ccc(O)cc1)NC(=O)[C@H](CO)NC(=O)[C@H](CCC(N)=O)NC(=O)[C@@H](NC(=O)[C@H](Cc1ccccc1)NC(=O)[C@@H](NC(=O)[C@H](C)NC(=O)[C@H](CC(=O)O)NC(=O)[C@@H](C)NC(=O)CCc1ccc(O)cc1)[C@@H](C)CC)[C@@H](C)O)C(C)C)[C@@H](C)CC)C(=O)N[C@@H](CC(=O)O)C(=O)N[C@H](CCCNC(=N)N)C(=O)NC [Peptide P-27401, [Dat^1, D-Ala^2, Gln^8, Orn^12, Abu^15, Orn^21, Nle^27, Asp^28, D-Arg^29]hGHRH(1-29)NH—CH3] (Desaminotyrosyl-[dA]DAIFTQSYR[Orn]VL[Abu]QLSAR[Orn]LLQDI[Nle]D[dR]-NHMe) | – | – | 0.61 | 0.73 | 24.6 ± 5.3 ng/mL | 217.9 ± 37.0 ng/mL | 204.1 ± 23.7 ng/mL | significantly higher potencies at 30 minutes than at 15 minutes | 58.8 | 0.93 | 253.4 | 2.27 |
| 4.03 | 1.09 | 3.04 | CCCC[C@H](NC(=O)[C@@H](NC(=O)[C@H](CC(=O)O)NC(=O)[C@H](CCC(N)=O)NC(=O)[C@H](CC(C)C)NC(=O)[C@H](CC(C)C)NC(=O)[C@H](CCCN)NC(=O)[C@H](CCCNC(=N)N)NC(=O)[C@H](C)NC(=O)[C@H](CO)NC(=O)[C@H](CC(C)C)NC(=O)[C@H](CCC(N)=O)NC(=O)[C@H](CC)NC(=O)[C@H](CC(C)C)NC(=O)[C@@H](NC(=O)[C@H](CCCN)NC(=O)[C@H](CCCNC(=N)N)NC(=O)[C@H](Cc1ccc(O)cc1)NC(=O)[C@H](CO)NC(=O)[C@H](CCC(N)=O)NC(=O)[C@@H](NC(=O)[C@H](Cc1ccccc1)NC(=O)[C@@H](NC(=O)[C@H](C)NC(=O)[C@H](CC(=O)O)NC(=O)[C@H](C)NC(=O)[C@H](Cc1ccc(O)cc1)NC)[C@@H](C)CC)[C@@H](C)O)C(C)C)[C@@H](C)CC)C(=O)N[C@@H](CO)C(=O)N[C@@H](CCCNC(=N)N)C(=O)NC [Peptide P-27405, [N—Me-Tyr^1, Gln^8, Orn^12, Abu^15, Orn^21, Nle^27]hGHRH(1-29)NH—CH3] (H-[NMeY]ADAIFTQSYR[Orn]VL[Abu]QLSAR[Orn]LLQDI[Nle]SR-NHMe) | – | – | 1.60 | 1.13 | 21.8 ± 5.9 ng/mL | 227.9 ± 10.5 ng/mL | 143.3 ± 6.1 ng/mL | – | 62.3 | 0.99 | 135.2 | 1.21 |

| Structure (SMILES) | Relative affinity (Binding potency) vs JI-38 (GHRH receptor [1]) | Relative affinity (Binding potency) compared to JI-38 (GHRH receptor [2]) | Relative affinity (Binding potency) compared to hGHRH(1-29) (GHRH receptor [2]) | IC50 (GHRH receptor [1]; 125I-JV-1-42, human pituitary membranes, Table 7) | GHRH receptor binding affinity (in words) (GHRH receptor [2]; compared to JI-38) | GH releasing potency relative to JI-38 (=1) (GH release [3]; 15 min after) | GH releasing potency relative to JI-38 (=1) (GH release [3]; 30 min after) | Serum GH level at selected time after injection (ng/ml), 0 min (GH release [4]) | Serum GH level at selected time after injection (ng/ml), 15 min (GH release [4]) | Serum GH level at selected time after injection (ng/ml), 30 min (GH release [4]) | GH-releasing potency after s.c. administration (in words) (GH release [4]) | Relative potency compared to GHRH(1-29), 15 min (GH release [4]) | Relative potency compared to JI-38, 15 min (GH release [4]) | Relative potency compared to GHRH(1-29), 30 min (GH release [4]) | Relative potency compared to JI-38, 30 min (GH release [4]) |
| --- | --- | --- | --- | --- | --- | --- | --- | --- | --- | --- | --- | --- | --- | --- | --- |
| CCCC[C@H](NC(=O)[C@@H](NC(=O)[C@H](CC(=O)O)NC(=O)[C@H](CCC(N)=O)NC(=O)[C@H](CC(C)C)NC(=O)[C@H](CC(C)C)NC(=O)[C@H](CCCN)NC(=O)[C@H](CCCNC(=N)N)NC(=O)[C@H](C)NC(=O)[C@H](CO)NC(=O)[C@H](CC(C)C)NC(=O)[C@H](CCC(N)=O)NC(=O)[C@H](CC)NC(=O)[C@H](CC(C)C)NC(=O)[C@@H](NC(=O)[C@H](CCCN)NC(=O)[C@H](CCCNC(=N)N)NC(=O)[C@H](Cc1ccc(O)cc1)NC(=O)[C@H](CO)NC(=O)[C@H](CCC(N)=O)NC(=O)[C@@H](NC(=O)[C@H](Cc1ccccc1)NC(=O)[C@@H](NC(=O)[C@H](C)NC(=O)[C@H](CC(=O)O)NC(=O)[C@@H](C)NC(=O)[C@H](Cc1ccc(O)cc1)N(C)C(C)=O)[C@@H](C)CC)[C@@H](C)O)C(C)C)[C@@H](C)CC)C(=O)N[C@@H](CC(=O)O)C(=O)NCCCCNC(=N)N [Peptide P-20351, [Ac—N—Me-Tyr^1, D-Ala^2, Gln^8, Orn^12, Abu^15, Orn^21, Nle^27, Asp^28, Agm^29] hGHRH(1-29)NH2] (Ac-[NMeY][dA]DAIFTQSYR[Orn]VL[Abu]QLSAR[Orn]LLQDI[Nle]D-Agmatine) | 1.26 | 0.71 | 1.98 | 3.44 nM | weaker GH-releasing potency and GH receptor binding affinity | 0.38 | 0.44 | 30.6 ± 7.2 ng/mL | 90.8 ± 20.3 ng/mL | 65.4 ± 10.1 ng/mL | weaker GH-releasing potency | 18.8 | 0.30 | 33.6 | 0.30 |
